Columns and labels:
(HEK293 cells) = assay: [3H]-WIN55212-2 binding competition in HEK293 cells; set-up: species or system human; conditions: FIG. 2c
Description: Cells were grown to 90% confluence, rinsed twice with 1× PBS and stored at −80° C. until further use. To prepare crude cellular membrane fractions, dishes were removed from −80° C. and thawed at room temperature for 5 min. Once thawed, cells were lysed with ice-cold homogenization buffer (50 mM Tris, 1 mM EDTA, 3 mM MgCl2) and gently scraped from the dish. Total cell lysates from 3-5 dishes were collected on ice in 3 ml of ice-cold homogenization buffer Cells were homogenized at 6,500 rpm (PRO Scientific, Oxford, Conn.) twice for 10 sec and centrifuged at 11,500 rpm for 20 min at 4° C. Supernatants were discarded and cell pellets were resuspended in homogenization buffer and tris rated 10 times in ice-cold homogenization buffer. Crude cellular membrane homogenates were stored at −80° C. until further use. […]
Due to the lipophillic nature of the tested compounds, all experiments were performed in silanized glass test tubes (Alltech, Deerfield, Ill.) with silanized pipette tips (VWR Scientific, Brisbane, Calif.) to reduce the loss of ligands. […] For competition binding assays, specific binding was calculated by subtracting the average dpm (disintegrations per minute, dpm) if non-specific points from the individual dpm values for each total binding point and expressed as either fmol/mg for saturation analyses or as a percent of total radioligand binding in competition curves. […]

CB2 = CB2 (Homo sapiens, UniProt P34972); assay: HA-tagged receptor internalization, CB2; format: cell-based; set-up: HA; expressed in transfected cells; conditions: FIG. 2b
Description: FIGS. 2d and 2e illustrate the co-docking of CP55940 and either WIN55212-2 (d) or ST-11 (e) in hCB1 receptors.

[1] = Accelerating rotarod, acute toxicity in healthy mice; format: in vivo, mouse
Description: As an initial step to test the therapeutic efficacy of ST-11 in vivo, the pharmacokinetic profile and acme toxicity profile of ST-11 in healthy mice were determined. FIG. 13 illustrates an LC-MS chromatogram and calibration curve of ST-11 (a & 13). PK profile of ST-11 (c, d, e & f).

[2] = system: mouse microglia in primary culture; assay: NO production in mouse microglia; format: cell-based
[3] = system: AI receptors (mouse microglia in primary culture); assay: [3H]-WIN55212 binding in mouse microglia

Chain of CB2 (P34972 whole entry): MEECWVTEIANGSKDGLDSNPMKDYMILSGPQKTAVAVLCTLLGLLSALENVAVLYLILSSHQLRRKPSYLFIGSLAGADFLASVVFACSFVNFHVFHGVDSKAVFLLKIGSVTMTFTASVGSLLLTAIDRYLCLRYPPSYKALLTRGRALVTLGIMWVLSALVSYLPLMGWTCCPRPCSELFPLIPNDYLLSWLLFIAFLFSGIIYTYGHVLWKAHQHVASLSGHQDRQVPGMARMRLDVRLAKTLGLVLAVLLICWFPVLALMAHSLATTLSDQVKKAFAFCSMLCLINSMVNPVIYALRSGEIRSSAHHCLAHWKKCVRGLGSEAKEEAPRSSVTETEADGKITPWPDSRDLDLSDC

CCn1c(C)c(C(=O)c2ccc(C)c3ccccc23)c2ccccc21 [ST-11]
competition for [3H]-WIN55212-2 binding ((HEK293 cells)): competes | cross-activation of human CB2 receptors (receptor internalization) (CB2): engage CB2 receptors | locomotor activity on an accelerating rotarod [1]: does not influence locomotor activity | NO production [2]: does not stimulate or inhibit | competition for [3H]-WIN55212 binding [3]: competed

— patent publication US20150018369A1 (priority 2012, published 2015)
